Reference: ChEMBL document CHEMBL1201862, “PubChem BioAssay data set” (2004)
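Dose response: 5 concentrations. Exposure: 48 h. Format: 96-well plates. Endpoint: linear interpolation; highest concentration if not reached. Here, GI50 denotes the concentration required for 50% inhibition of growth.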 Calls of active or inactive are those of the source. No stated cut-off is given here; in the data, active = GI50 up to about 1.1 µM and inactive = higher.

What was measured:
Assay in all cases: NCI-60 cell line screen, 48 h
BT-549 = system: BT-549
EKVX = system: EKVX
Malme-3M = system: Malme-3M
OVCAR-3 = system: OVCAR-3
SNB-19 = system: SNB-19
TK-10 = system: TK-10

C=C1C(=O)O[C@@H]2C=C(C)C3=CC(=O)[C@](C)(C[C@H](OC(=O)/C(C)=C\C)[C@@H]12)O3
GI50 (BT-549): 493 nM (active)
GI50 (EKVX): 2770 nM (inactive)
GI50 (Malme-3M): 1340 nM (inactive)
GI50 (OVCAR-3): 491 nM (active)
GI50 (SNB-19): 8470 nM (inactive)
GI50 (TK-10): 826 nM (active)
